Experimental data published in patent publication US4181797A, “1-N-(ω-amino-α-hydroxyalkanoyl) derivatives of 4'-deoxy-6'-N-methylkanamycin A” (Bristol-Myers Company, priority 1978, dated 1980).
≈ marks a conversion by molar mass, not a printed value.

Experiments:
[1] = test system: kanamycin phosphotransferase Type-II; conditions: The Journal of Antibiotics, 27, 722-725 and 838-850 (1974); cited from earlier work
[2] = test system: resistant strains which contain 6'-N-acetylating enzymes; conditions: background statement; cited from earlier work
[3] = test system: strains which phosphorylate the 3'-hydroxy group; conditions: background statement; cited from earlier work
S. aureus Smith = assay: MIC in Mueller-Hinton agar, kanamycin-sensitive strain; format: cell-based; conditions: Staphylococcus aureus
Description: (§1) The Minimum Inhibitory Concentrations (MIC's) of BB-K311, amikacin and kanamycin A were determined in Mueller-Hinton agar against a number of kanamycin-sensitive and kanamycin-resistant strains of organisms.

E. coli A9632 = assay: as above; format: cell-based; conditions: Escherichia coli, A9632
Description: as §1

S. marcescens A20019 = assay: as above; format: cell-based; conditions: Serratia marcescens, A20019
Description: as §1

P. mirabilis A9900 = assay: as above; format: cell-based; conditions: Proteus mirabilis, A9900
Description: as §1

P. Morganii A20031 = assay: as above; format: cell-based; conditions: Morganella morganii
Description: as §1

E. cloacae A20464 = assay: as above; format: cell-based; conditions: Enterobacter cloacae, A20464
Description: as §1

B. brevis ATCC8185 = assay: as above; format: cell-based; conditions: Brevibacillus brevis, ATCC8185
Description: as §1

P. vulgaris A9526 = assay: as above; format: cell-based; conditions: Proteus vulgaris, A9526
Description: as §1

P. stuartii A20615 = assay: as above; format: cell-based; conditions: Providencia stuartii, A20615
Description: as §1

K. pneumoniae A15130 = assay: as above; format: cell-based; conditions: Klebsiella pneumoniae, A15130
Description: as §1

S. marcescens A21226 = assay: MIC in Mueller-Hinton agar, AAC(6')-producing strain; format: cell-based; conditions: Serratia marcescens, A21226
Description: as §1

P. aeruginosa GN4925 = assay: as above; format: cell-based; conditions: Pseudomonas aeruginosa, GN4925
Description: as §1

E. coli A2128 = assay: as above; format: cell-based; conditions: Escherichia coli, A2128
Description: as §1

S. marcescens A22382 = assay: as above; format: cell-based; conditions: Serratia marcescens, A22382
Description: as §1

S. aureus A22421 = assay: as above; format: cell-based; conditions: Staphylococcus aureus, A22421
Description: as §1

S. epidermidis A22211 = assay: as above; format: cell-based; conditions: Staphylococcus epidermidis, A22211
Description: as §1

S. marcescens A22288 = assay: as above; format: cell-based; conditions: Serratia marcescens, A22288
Description: as §1

E. cloacae HM-43 = assay: as above; format: cell-based; conditions: Enterobacter cloacae, HM43
Description: as §1

P. aeruginosa GN315 = assay: as above; format: cell-based; conditions: Pseudomonas aeruginosa, GN315
Description: as §1

S. epidermidis A22152 = assay: as above; format: cell-based; conditions: Staphylococcus epidermidis, A22152
Description: as §1

S. aureus A22153 = assay: as above; format: cell-based; conditions: Staphylococcus aureus, A22153
Description: as §1

S. marcescens A21235 = assay: as above; format: cell-based; conditions: Serratia marcescens, A21235
Description: as §1

P. rettgeri HM-56 = assay: as above; format: cell-based; conditions: Providencia rettgeri, HM56
Description: as §1

E. cloacae A20364 = assay: MIC in Mueller-Hinton agar, APH(3')-I producer; format: cell-based; conditions: Enterobacter cloacae, A20364
Description: as §1

E. coli A20363 = assay: MIC in Mueller-Hinton agar, APH(3')-I producer; format: cell-based; conditions: Escherichia coli, A20363
Description: as §1

E. cloacae A21006 = assay: MIC in Mueller-Hinton agar, APH(3')-II producer; format: cell-based; conditions: Enterobacter cloacae, A21006
Description: as §1

E. coli A20107 = assay: MIC in Mueller-Hinton agar, APH(3')-II producer; format: cell-based; conditions: Escherichia coli, A20107
Description: as §1

B. brevis IFO 12334 = assay: MIC in Mueller-Hinton agar, ANT(4')-producing strain; format: cell-based; conditions: Brevibacillus brevis, IFO12334
Description: as §1

S. epidermidis A22033 = assay: as above; format: cell-based; conditions: Staphylococcus epidermidis, A22033
Description: as §1

S. aureus A22054 = assay: as above; format: cell-based; conditions: Staphylococcus aureus, A22054
Description: as §1

E. coli A20895 = assay: MIC in Mueller-Hinton agar, AAC(3)-I producer; format: cell-based; conditions: Escherichia coli, A20895
Description: as §1

E. coli A20732 = assay: MIC in Mueller-Hinton agar, ANT(2") producer; format: cell-based; conditions: Escherichia coli, A20732
Description: as §1

NCC1CC(O)C(O)C(OC2C(N)CC(N)C(OC3OC(CO)C(O)C(N)C3O)C2O)O1 (stereo not drawn) [4'-deoxykanamycin]
resistance to kanamycin phosphotransferase Type-II [1]: resistance to kanamycin phosphotransferase Type-II

NCC1OC(OC2C(N)CC(N)C(OC3OC(CO)C(O)C(N)C3O)C2O)C(O)CC1O (stereo not drawn) [3'-deoxykanamycin]
activity against strains with 6'-N-acetylating enzymes [2]: inactivated by other resistant strains | activity against 3'-hydroxy phosphorylating strains [3]: active against strains which phosphorylate the 3'-hydroxy group

NC[C@H]1O[C@H](O[C@H]2[C@H](O)[C@@H](O[C@H]3O[C@H](CO)[C@@H](O)[C@H](N)[C@H]3O)[C@H](N)C[C@@H]2N)[C@H](O)[C@@H](O)[C@@H]1O [Kanamycin A, kanamycin A]
MIC (S. aureus Smith): 0.8 µg/mL (≈ 1.65 µM) | MIC (E. coli A9632): 1.6 µg/mL (≈ 3.3 µM) | MIC (S. marcescens A20019): 1.6 µg/mL (≈ 3.3 µM) | MIC (P. mirabilis A9900): 1.6 µg/mL (≈ 3.3 µM) | MIC (P. Morganii A20031): 3.1 µg/mL (≈ 6.4 µM) | MIC (E. cloacae A20464): 6.3 µg/mL (≈ 13 µM) | MIC (B. brevis ATCC8185): 1.6 µg/mL (≈ 3.3 µM) | MIC (P. vulgaris A9526): 0.8 µg/mL (≈ 1.65 µM) | MIC (P. stuartii A20615): 1.6 µg/mL (≈ 3.3 µM) | MIC (K. pneumoniae A15130): 1.6 µg/mL (≈ 3.3 µM) | MIC (S. marcescens A21226): 12.5 µg/mL (≈ 25.8 µM) | MIC (P. aeruginosa GN4925): 100 µg/mL (≈ 206 µM) | MIC (E. coli A2128): 100 µg/mL (≈ 206 µM) | MIC (S. marcescens A22382): 25 µg/mL (≈ 51.6 µM) | MIC (S. aureus A22421): > 100 µg/mL | MIC (S. epidermidis A22211): > 100 µg/mL | MIC (S. marcescens A22288): > 100 µg/mL | MIC (E. cloacae HM-43): > 100 µg/mL | MIC (P. aeruginosa GN315): > 100 µg/mL | MIC (S. epidermidis A22152): > 100 µg/mL | MIC (S. aureus A22153): > 100 µg/mL | MIC (S. marcescens A21235): 50 µg/mL (≈ 103 µM) | MIC (P. rettgeri HM-56): > 100 µg/mL | MIC (E. cloacae A20364): 100 µg/mL (≈ 206 µM) | MIC (E. coli A20363): 100 µg/mL (≈ 206 µM) | MIC (E. cloacae A21006): 100 µg/mL (≈ 206 µM) | MIC (E. coli A20107): 100 µg/mL (≈ 206 µM) | MIC (B. brevis IFO 12334): > 100 µg/mL | MIC (S. epidermidis A22033): 50 µg/mL (≈ 103 µM) | MIC (S. aureus A22054): > 100 µg/mL | MIC (E. coli A20895): 1.6 µg/mL (≈ 3.3 µM) | MIC (E. coli A20732): 25 µg/mL (≈ 51.6 µM) | activity against 3'-hydroxy phosphorylating strains [3]: certain strains of Gram-negative bacteria are resistant to kanamycin A
